Counter-ions that a name gives are not always drawn.
How the values were obtained:
[1] = tested on: carrageenan-induced thermal hyperalgesia; assay: carrageenan-induced thermal hyperalgesia model; format: in vivo, rats; conditions: for minimum effective dose: given 3 hours after carrageenan
Procedure: In the carrageenan-induced thermal hyperalgesia model, male rats were habituated to the rat plantar test apparatus and thermal hyperalgesia was then assessed as described in the paragraph concerning the CCI model. Briefly, after baseline paw withdrawal latencies were determined, animals received an intraplantar injection of carrageenan (100 μl of a 20 mg/ml solution) into the right hind paw. Paw withdrawal latencies (PWL) were reassessed following the same protocol as above 2.5 hours after carrageenan. (this time point represented the start of peak hyperalgesia) to ascertain that hyperalgesia had developed. CHF 3381 (3-10-30-60 mg/kg i.p. and 10-30-60-100 mg/kg p.o.) was then administered 3 hours post carrageenan and paw withdrawal latencies were taken again at 3.5, 4 and 5 hours post carrageenan. Carrageenan induced a significant reduction of paw withdrawal latency in all animals at 2.5 hours following injection. This hyperalgesia was maintained in vehicle-treated animals for at least five hours after carrageenan. The i.p. and p.o. administration of CHF 3381 at 3 hours after carrageenan, dose-dependently antagonised the maintenance of thermal hyperalgesia with respective minimum effective doses of 10 mg/kg i.p. and 30 mg/kg p.o. (Table 5).

[2] = tested on: formalin-induced flinching and licking behavior; assay: formalin model of inflammatory pain in rats; format: in vivo
MAO (mono amino oxidase) = assay: MAO inhibiting activity; format: biochemical
[3] = tested on: acute pain, hot plate 55° C.; assay: hot-plate test, mice; format: in vivo; conditions: 15 min
Procedure: The effect of CHF 3381 was studied in acute pain with hot-plate test described by Eddy et al (1953). The test was performed on an electrically heated and thermostatically controlled copper surface, set to a temperature of 55 or 51° C. with mice and rats, respectively.
The animals were confined to the hot plate by a transparent observation chamber and the latency to the response consisting of licking of the hind paws, was measured. A cut-off period of 60 sec was used to avoid tissue damage.
After i.p. administration, CHF 3381 (30-45-60 and 100 mg/kg in mouse; 30-37-45 and 60 mg/kg in rats), produced a significant and dose-dependent increase in the latency of the hindpaw licking response compared to vehicle-treated animals (Table 6).

[4] = tested on: formalin-induced licking and flinching; assay: mice paw formalin test, acute treatment; format: in vivo; conditions: for Late phase licking/flinching time: 10 to 40 min; for Early phase licking/flinching time: first 5 min
Procedure: The mice paw formalin test was performed as described by Wheeler-Aceto et al. (Psychopharmacology 104:35-44, 1991). Briefly, the day before the formalin injection, mice were placed individually into clear plastic cylinders for 30 minutes of adaptation. The day of testing 20 μl of 1% formalin was injected into the plantar surface of the left hind paw and the animals were again placed into the plastic cylinder for the behavioural observation. The amount of time, in seconds, the animals spent licking and flinching (L/F) the injected paw for the first 5 min (early phase), and then from 10 to 40 min(late phase) after formalin injection, was used as measurement of intensity of pain. CHF 3381 10-100 mg/kg i.p. and 25-200 mg/kg p.o. or the corresponding vehicles, were administered 15 and 30 min before formalin injection, respectively.

`NC(=O)CNC1Cc2ccccc2C1` [CHF 3381, N-2(indanyl)-glicinamide hydrochloride] was tested. Which Paw withdrawal latency ([1]; 3 mg/kg i.p. at 3 h, 3.5 h after carrageenan) did it give?
The Paw withdrawal latency was 5.1 ± 0.60 s.

And the Paw withdrawal latency ([1]; 3 mg/kg i.p. at 3 h, 4.0 h after carrageenan)?
Its Paw withdrawal latency is 6.7 ± 0.64 s.

What about the Paw withdrawal latency ([1]; 3 mg/kg i.p. at 3 h, 5.0 h after carrageenan) of the same molecule?
Its Paw withdrawal latency is 8.3 ± 0.50 s.

What about the Paw withdrawal latency ([1]; 3 mg/kg i.p. group, 0 h (baseline, before carrageenan and dosing)) of the same molecule?
Its Paw withdrawal latency is 11.2 ± 0.92 s.

What about the Paw withdrawal latency ([1]; 3 mg/kg i.p. group, 2.5 h after carrageenan (before dosing at 3 h)) of the same molecule?
Its Paw withdrawal latency is 4.4 ± 0.50 s.

What about the Paw withdrawal latency ([1]; 10 mg/kg i.p. at 3 h, 3.5 h after carrageenan) of the same molecule?
Its Paw withdrawal latency is 7.4 ± 0.50 s.

What about the Paw withdrawal latency ([1]; 10 mg/kg i.p. at 3 h, 4.0 h after carrageenan) of the same molecule?
Its Paw withdrawal latency is 7.8 ± 0.66 s.

And the Paw withdrawal latency ([1]; 10 mg/kg i.p. at 3 h, 5.0 h after carrageenan)?
The Paw withdrawal latency was 8.4 ± 0.80 s.

And the Paw withdrawal latency ([1]; 10 mg/kg i.p. group, 0 h (baseline, before carrageenan and dosing))?
Its Paw withdrawal latency is 11.8 ± 0.49 s.

What about the Paw withdrawal latency ([1]; 10 mg/kg i.p. group, 2.5 h after carrageenan (before dosing at 3 h)) of the same molecule?
The Paw withdrawal latency was 5.1 ± 0.50 s.

And the Paw withdrawal latency ([1]; 10 mg/kg p.o. at 3 h, 3.5 h after carrageenan)?
Its Paw withdrawal latency is 6.65 ± 1.2 s.

What about the Paw withdrawal latency ([1]; 10 mg/kg p.o. at 3 h, 4.0 h after carrageenan) of the same molecule?
Its Paw withdrawal latency is 6.90 ± 0.61 s.

And the Paw withdrawal latency ([1]; 10 mg/kg p.o. at 3 h, 5.0 h after carrageenan)?
Its Paw withdrawal latency is 7.29 ± 0.83 s.

And the Paw withdrawal latency ([1]; 10 mg/kg p.o. group, 0 h (baseline, before carrageenan and dosing))?
The Paw withdrawal latency was 12.96 ± 1.01 s.

And the Paw withdrawal latency ([1]; 10 mg/kg p.o. group, 2.5 h after carrageenan (before dosing at 3 h))?
The Paw withdrawal latency was 4.79 ± 0.71 s.

And the Paw withdrawal latency ([1]; 30 mg/kg i.p. at 3 h, 3.5 h after carrageenan)?
The Paw withdrawal latency was 6.8 ± 0.70 s.

And the Paw withdrawal latency ([1]; 30 mg/kg i.p. at 3 h, 4.0 h after carrageenan)?
Its Paw withdrawal latency is 8.8 ± 0.80 s.

And the Paw withdrawal latency ([1]; 30 mg/kg i.p. at 3 h, 5.0 h after carrageenan)?
The Paw withdrawal latency was 8.1 ± 0.80 s.

What about the Paw withdrawal latency ([1]; 30 mg/kg i.p. group, 0 h (baseline, before carrageenan and dosing)) of the same molecule?
Its Paw withdrawal latency is 11.3 ± 0.84 s.

And the Paw withdrawal latency ([1]; 30 mg/kg i.p. group, 2.5 h after carrageenan (before dosing at 3 h))?
The Paw withdrawal latency was 4.7 ± 0.60 s.

What about the Paw withdrawal latency ([1]; 30 mg/kg p.o. at 3 h, 3.5 h after carrageenan) of the same molecule?
Its Paw withdrawal latency is 7.38 ± 0.65 s.

And the Paw withdrawal latency ([1]; 30 mg/kg p.o. at 3 h, 4.0 h after carrageenan)?
The Paw withdrawal latency was 7.61 ± 0.59 s.

And the Paw withdrawal latency ([1]; 30 mg/kg p.o. at 3 h, 5.0 h after carrageenan)?
The Paw withdrawal latency was 9.04 ± 0.85 s.

What about the Paw withdrawal latency ([1]; 30 mg/kg p.o. group, 0 h (baseline, before carrageenan and dosing)) of the same molecule?
Its Paw withdrawal latency is 11.98 ± 0.71 s.

What about the Paw withdrawal latency ([1]; 30 mg/kg p.o. group, 2.5 h after carrageenan (before dosing at 3 h)) of the same molecule?
Its Paw withdrawal latency is 5.78 ± 0.93 s.

What about the Paw withdrawal latency ([1]; 60 mg/kg i.p. at 3 h, 3.5 h after carrageenan) of the same molecule?
The Paw withdrawal latency was 8.0 ± 1.20 s.

And the Paw withdrawal latency ([1]; 60 mg/kg i.p. at 3 h, 4.0 h after carrageenan)?
Its Paw withdrawal latency is 10.4 ± 1.39 s.

And the Paw withdrawal latency ([1]; 60 mg/kg i.p. at 3 h, 5.0 h after carrageenan)?
The Paw withdrawal latency was 10.7 ± 0.90 s.

What about the Paw withdrawal latency ([1]; 60 mg/kg i.p. group, 0 h (baseline, before carrageenan and dosing)) of the same molecule?
The Paw withdrawal latency was 11.4 ± 0.85 s.

What about the Paw withdrawal latency ([1]; 60 mg/kg i.p. group, 2.5 h after carrageenan (before dosing at 3 h)) of the same molecule?
Its Paw withdrawal latency is 4.1 ± 0.50 s.

What about the Paw withdrawal latency ([1]; 60 mg/kg p.o. at 3 h, 3.5 h after carrageenan) of the same molecule?
The Paw withdrawal latency was 8.68 ± 1.16 s.

What about the Paw withdrawal latency ([1]; 60 mg/kg p.o. at 3 h, 4.0 h after carrageenan) of the same molecule?
The Paw withdrawal latency was 8.20 ± 0.85 s.

What about the Paw withdrawal latency ([1]; 60 mg/kg p.o. at 3 h, 5.0 h after carrageenan) of the same molecule?
Its Paw withdrawal latency is 8.34 ± 0.81 s.

And the Paw withdrawal latency ([1]; 60 mg/kg p.o. group, 0 h (baseline, before carrageenan and dosing))?
Its Paw withdrawal latency is 11.98 ± 0.67 s.

What about the Paw withdrawal latency ([1]; 60 mg/kg p.o. group, 2.5 h after carrageenan (before dosing at 3 h)) of the same molecule?
The Paw withdrawal latency was 5.22 ± 0.58 s.

What about the “reversal of thermal hyperalgesia induced by carrageenan” value ([1]; 100 mg/kg p.o. and 60 mg/kg i.p.) of the same molecule?
The value was “nearly complete reversal”.

And the Paw withdrawal latency ([1]; 100 mg/kg p.o. at 3 h, 3.5 h after carrageenan)?
The Paw withdrawal latency was 10.31 ± 1.20 s.

And the Paw withdrawal latency ([1]; 100 mg/kg p.o. at 3 h, 4.0 h after carrageenan)?
Its Paw withdrawal latency is 8.72 ± 0.75 s.

What about the Paw withdrawal latency ([1]; 100 mg/kg p.o. at 3 h, 5.0 h after carrageenan) of the same molecule?
Its Paw withdrawal latency is 9.34 ± 0.85 s.

What about the Paw withdrawal latency ([1]; 100 mg/kg p.o. group, 0 h (baseline, before carrageenan and dosing)) of the same molecule?
Its Paw withdrawal latency is 13.24 ± 0.75 s.

And the Paw withdrawal latency ([1]; 100 mg/kg p.o. group, 2.5 h after carrageenan (before dosing at 3 h))?
Its Paw withdrawal latency is 5.52 ± 0.96 s.

What about the minimum effective dose ([1]; i.p.) of the same molecule?
The minimum effective dose was 10 mg/kg.

And the minimum effective dose ([1]; p.o.)?
The minimum effective dose was 30 mg/kg.

And the “flinching and licking behavior during the early and late nociceptive phases” value [2]?
Its value is “clearly suppressed”.

What about the “inhibiting activity towards MAO” value (MAO (mono amino oxidase)) of the same molecule?
Its value is “inhibiting activity”.

What about the “latency of the hindpaw licking response” value ([3]; 30 mg/kg i.p.) of the same molecule?
The value was 19.40 ± 1.37 s.

And the “latency of the hindpaw licking response” value ([3]; 45 mg/kg i.p.)?
Its value is 20.16 ± 1.73 s.

And the “latency of the hindpaw licking response” value ([3]; 60 mg/kg i.p.)?
Its value is 26.95 ± 2.45 s.

What about the “latency of the hindpaw licking response” value ([3]; 100 mg/kg i.p.) of the same molecule?
The value was 37.71 ± 3.17 s.

And the “Late phase licking/flinching time” value ([4]; 10 mg/kg i.p.)?
The value was 165 ± 26 s.

And the “Early phase licking/flinching time” value ([4]; 10 mg/kg i.p.)?
The value was 95 ± 8 s.

And the “Late phase licking/flinching time” value ([4]; 25 mg/kg p.o.)?
Its value is 92 ± 25 s.

And the “Early phase licking/flinching time” value ([4]; 25 mg/kg p.o.)?
Its value is 99 ± 8 s.

And the “Late phase licking/flinching time” value ([4]; 30 mg/kg i.p.)?
Its value is 58 ± 1 s.

And the “Early phase licking/flinching time” value ([4]; 30 mg/kg i.p.)?
Its value is 59 ± 9 s.

And the “Late phase licking/flinching time” value ([4]; 50 mg/kg p.o.)?
The value was 30 ± 9 s.

And the “Early phase licking/flinching time” value ([4]; 50 mg/kg p.o.)?
The value was 72 ± 7 s.

And the “Late phase licking/flinching time” value ([4]; 60 mg/kg i.p.)?
The value was 17 ± 5 s.

And the “Early phase licking/flinching time” value ([4]; 60 mg/kg i.p.)?
Its value is 32 ± 7 s.

And the “Late phase licking/flinching time” value ([4]; 100 mg/kg i.p.)?
Its value is 2 ± 2 s.

What about the “Early phase licking/flinching time” value ([4]; 100 mg/kg i.p.) of the same molecule?
The value was 17 ± 4 s.

What about the “Late phase licking/flinching time” value ([4]; 100 mg/kg p.o.) of the same molecule?
The value was 23 ± 16 s.

What about the “Early phase licking/flinching time” value ([4]; 100 mg/kg p.o.) of the same molecule?
Its value is 46 ± 7 s.

And the “Late phase licking/flinching time” value ([4]; 200 mg/kg p.o.)?
Its value is 12 ± 10 s.

What about the “Early phase licking/flinching time” value ([4]; 200 mg/kg p.o.) of the same molecule?
Its value is 47 ± 4 s.

And the “acute and tonic formalin-induced licking response” value ([4]; mice, 100 mg/kg p.o. and 60 mg/kg i.p.)?
Its value is “almost completely blocked”.

— patent US20050222266A1, “2-indanylamino derivatives for the therapy of chronic pain” (priority 2002, published 2005)
